In ChEMBL document CHEMBL5335870, “Discovery of Hepatitis B Virus Surface Antigen Suppressor GS-8873” (ACS Med Chem Lett, 2024):

Assays:
[1] = AUC (0 to infinity) Beagle dog at 0.5 mg/kg, iv; format: ADME, organism-based, Canis lupus familiaris; parameters: dose 0.5 mg/kg, route iv; settings: in vivo
[2] = Half life in Rhesus monkey at 0.5 mg/kg, iv; format: ADME, organism-based, Macaca mulatta; settings: in vivo
[3] = AUC (0 to infinity) Cynomolgus monkey at 0.4 mg/kg, iv; format: ADME, organism-based, Macaca fascicularis; parameters: dose 0.4 mg/kg, route iv; settings: in vivo
Hepatitis B virus = assay: Antiviral activity against genotype D HBV infected in sodium taurocholate co-transporting polypeptide receptor-expressing stable HepG2 cell line assessed as suppression of HBsAg level incubated for 5 days by multiplex chemiluminescent MSD assay; format: functional, organism-based; settings: HepG2, 120 h
[4] = AUC (0 to infinity) Sprague-Dawley rat at 1 mg/kg, iv; format: ADME, organism-based; parameters: dose 1 mg/kg, route iv; settings: in vivo
[5] = Volume of distribution at steady state in Beagle dog at 0.5 mg/kg, iv; format: ADME, organism-based, Canis lupus familiaris; settings: in vivo, read-out: Vdss
[6] = Volume of distribution at steady state in Sprague-Dawley rat at 1 mg/kg, iv; format: ADME, organism-based; settings: in vivo, read-out: Vdss
[7] = Clearance in Beagle dog at 0.5 mg/kg, iv; format: ADME, organism-based, Canis lupus familiaris; settings: in vivo
[8] = MRT in Beagle dog at 0.5 mg/kg, iv; format: ADME, organism-based, Canis lupus familiaris; settings: in vivo
[9] = MRT in Sprague-Dawley rat at 1 mg/kg, iv; format: ADME, organism-based; settings: in vivo
[10] = AUC (0 to infinity) Rhesus monkey at 0.5 mg/kg, iv; format: ADME, organism-based, Macaca mulatta; parameters: dose 0.5 mg/kg, route iv; settings: in vivo
[11] = Oral bioavailability in Sprague-Dawley rat after 24 hrs by LC/MS/MS method; format: ADME, organism-based; settings: in vivo
[12] = Half life in Sprague-Dawley rat at 1 mg/kg, iv; format: ADME, organism-based; settings: in vivo
[13] = MRT in Cynomolgus monkey at 0.4 mg/kg, iv; format: ADME, organism-based, Macaca fascicularis; settings: in vivo
[14] = Oral bioavailability in Cynomolgus monkey at 0.5 mg/kg; format: ADME, organism-based, Macaca fascicularis; settings: in vivo
[15] = Clearance in Rhesus monkey at 0.5 mg/kg, iv; format: ADME, organism-based, Macaca mulatta; settings: in vivo
[16] = Volume of distribution at steady state in Rhesus monkey at 0.5 mg/kg, iv; format: ADME, organism-based, Macaca mulatta; settings: in vivo, read-out: Vdss
[17] = Clearance in Sprague-Dawley rat at […], iv measured after 24 hrs by LC/MS/MS method; format: ADME, organism-based; settings: in vivo
[18] = Clearance in Sprague-Dawley rat at 1 mg/kg, iv; format: ADME, organism-based; settings: in vivo
[19] = Half life in Cynomolgus monkey at 0.4 mg/kg, iv; format: ADME, organism-based, Macaca fascicularis; settings: in vivo
[20] = Clearance in Cynomolgus monkey at 0.4 mg/kg, iv; format: ADME, organism-based, Macaca fascicularis; settings: in vivo
[21] = Half life in Beagle dog at 0.5 mg/kg, iv; format: ADME, organism-based, Canis lupus familiaris; settings: in vivo
[22] = Oral bioavailability in Sprague-Dawley rat at 3 mg/kg; format: ADME, organism-based; settings: in vivo
[23] = Oral bioavailability in Beagle dog at 0.5 mg/kg; format: ADME, organism-based, Canis lupus familiaris; settings: in vivo
[24] = Volume of distribution at steady state in Cynomolgus monkey at 0.4 mg/kg, iv; format: ADME, organism-based, Macaca fascicularis; settings: in vivo, read-out: Vdss

Structure (SMILES): COCCCOc1cc2c(cc1COC)-c1cc(=O)c(C(=O)O)cn1N1[C@@H]2CCC1(C)C
- AUC(0-inf) [1]: 4.91 µM·h
- half-life [2]: 5.5 h
- AUC(0-inf) [3]: 5.93 µM·h
- EC50 (Hepatitis B virus): 4 nM
- AUC(0-inf) [4]: 8.44 µM·h
- Vd [5]: 0.85 L/kg
- Vd [6]: 0.69 L/kg
- clearance [7]: 0.24 L/h/kg
- MRT [8]: 3.6 h
- MRT [9]: 2.6 h
- AUC(0-inf) [10]: 6.41 µM·h
- bioavailability [11]: 91%
- half-life [12]: 2.5 h
- MRT [13]: 8.1 h
- bioavailability [14]: 91%
- clearance [15]: 0.18 L/h/kg
- Vd [16]: 1.14 L/kg
- clearance [17]: 0.27 L/h/kg
- clearance [18]: 0.27 L/h/kg
- half-life [19]: 6.7 h
- clearance [20]: 0.15 L/h/kg
- half-life [21]: 5.1 h
- bioavailability [22]: 91%
- bioavailability [23]: 94%
- Vd [24]: 1.23 L/kg
